Source: patent US20250115943A1, “SYSTEM AND METHOD FOR ANTIMICROBIAL SUSCEPTIBILITY TESTING” (priority 2023, published 2025)
Converted amounts (≈) assume the structure as drawn. Where two headings read alike, the source gives them in different places.

What was measured:
E. coli ATCC 25922 [1] = assay: CytoSPAR BLAST antibiotic susceptibility test; assay type: cell-based; settings: for MIC: Escherichia coli; for S, I, R: susceptible, intermediate, resistant category
Text: (§1) The disclosed technology, which is referred to as the CytoSPAR BLAST (Bacteria Labeling Antibiotic Susceptibility Test) system, is used to quantitatively assess bacterial minimal inhibitory concentration of antibiotics for in vitro susceptibility testing. Used as an aid in diagnosis for clinicians in determining potential treatment options for patients suspected of having a microbial infection, BLAST is intended to determine susceptibility of microorganisms to the listed antibiotics (or other antimicrobials) according to manufacturer's standards. The system is intended for use with clinical isolates from liquid culture and colonies grown on agar (solid medium) or directly from urine samples. Certain implementations of BLAST determine antibiotic susceptibility for a wide range of bacteria obtained from various types of patient samples, including samples from individuals suffering from urinary tract infections. The disclosed technology includes a high-throughput assay that directly detects bacterial susceptibility to a library of frequently used antibiotics and covers both Gram-negative and Gram-positive bacteria.
(§2) The test incorporates a non-canonical amino acid (ncAA) into newly produced proteins. The incorporated ncAA includes a reactive group which allows a specific modification and detection of the living bacteria. The assay involves bacterial incorporation of the ncAA, a chemical reaction between a reactive group and a fluorophore-tagged ligand, and detection of the newly fluorescent-tagged bacteria using a fluorescent plate reader or functionally similar device. The ncAA is added to bacterial growth media and is incorporated into newly synthesized bacterial proteins. The reactive groups on the ncAA are not naturally found in bacteria and act as a specific reactive group for bacteria undergoing active protein synthesis. […] The entire process is performed in a microtiter filter plate for high-throughput scale-up. Alternatively, a normal 96-well plate can also be used in which case centrifugation is used to wash the plate instead of filtration.
(§3) In an example embodiment, bacterial samples are first diluted and incubated in acclimatization media. After treatment with one or more antimicrobials, the ncAA is added and is taken up by living bacteria during protein biosynthesis in a process called labeling. […] The Click-Chemistry reaction between the alkyne group of the ncAA and the azide group of the fluorophore-tagged ligand requires the presence of copper in the reduced state-copper (I). In other implementations, the functional groups of the click chemistry reaction can be changed so that the ncAA has the azide group and the dye has the alkyne group. […] Other reducing agents may be used in the BLAST assay, for example, aldoses (sugars) including glyceraldehyde, glucose, and ribose to replace sodium ascorbate. Likewise, alternate chelators may be used (e.g., histidine in place of BTTAA). In some implementations, metal-free click chemistry reactions are performed without using copper.
(§4) Using the BLAST system, tests can be performed on isolates or direct urine samples. Isolates may be from urine, blood, or other body fluids. Isolated bacteria may be either Gram-positive or Gram-negative. In an example implementation, living bacterial samples in acclimatization media (Buffer A) are distributed in a microtiter filter plate, wherein certain predetermined wells include antibiotics of interest at different concentrations. These antibiotics are arrayed with increasing concentrations in adjacent wells so that the bacterial response can be measured against each specific concentration. The response is measured quantitatively, and a value that corresponds to the ability of the bacteria to metabolize and grow is measured.

S. aureus ATCC 29213 [2] = assay: CytoSPAR BLAST antibiotic susceptibility test; assay type: cell-based; settings: for S, I, R: susceptible, intermediate, resistant category; for MIC: Staphylococcus aureus
Text: as §1, §2, §3, §4

S. aureus ATCC 29213 [3] = settings: CLSI M100-Ed34E; cited from earlier work
E. coli ATCC 25922 [4] = settings: CLSI M100-Ed34E, cited from earlier work
P. mirabilis LSI 4698 [5] = assay: CytoSPAR BLAST antibiotic susceptibility test; assay type: cell-based
Text: as §1, §2, §3, §4

P. mirabilis LSI 4933 [6] = assay: CytoSPAR BLAST antibiotic susceptibility test; assay type: cell-based
Text: as §1, §2, §3, §4

K. pneumoniae LSI 4552 [7] = assay: CytoSPAR BLAST antibiotic susceptibility test; assay type: cell-based
Text: as §1, §2, §3, §4

K. pneumoniae LSI CT1045 [8] = assay: CytoSPAR BLAST antibiotic susceptibility test; assay type: cell-based; settings: susceptible, intermediate, resistant category
Text: as §1, §2, §3, §4

E. coli LSI 770 [9] = assay: CytoSPAR BLAST antibiotic susceptibility test; assay type: cell-based; settings: E. coli LSI 770; for MIC: Escherichia coli, LSI770
Text: as §1, §2, §3, §4

E. coli LSI 770 [10] = assay: reference broth microdilution (rBMD); assay type: cell-based
Method: (§5) Following optimization of the BLAST assay, two other tests were performed in which 12 antibiotics (covering different classes) and 8 bacterial strains (Gram-positive and Gram-negative) were assayed using the same method as described above. Different bacterial strains were tested against different antibiotics and for each pair tested, the BLAST MIC value was compared to the CLSI QC range where available, or to the reference broth microdilution (rBMD) MIC which was determined in parallel with the BLAST assay following the CLSI protocols (see references [9]).
The inoculated urine cultures were incubated overnight at 35+2° C. Each urine culture was centrifuged, and the sediment used to prepare the BLAST inoculum of 5.0×10^5 CFU/mL to start the assay as described in the protocols section. […] The spiked urine samples were tested in parallel with isolates and the resultant BLAST MIC values were compared. In addition to the BLAST test, all the samples were also tested using the reference broth microdilution (rBMD) method and the MIC values were compared.

P. mirabilis LSI 4698 [11] = assay: reference broth microdilution (rBMD); assay type: cell-based; settings: Proteus mirabilis, LSI4698
Method: Different bacterial strains were tested against different antibiotics and for each pair tested, the BLAST MIC value was compared to the CLSI QC range where available, or to the reference broth microdilution (rBMD) MIC which was determined in parallel with the BLAST assay following the CLSI protocols (see references [8] [9]).

P. mirabilis LSI 4933 [12] = assay: reference broth microdilution (rBMD); assay type: cell-based; settings: Proteus mirabilis, LSI4933
Method: as §5

K. pneumoniae LSI 4552 [13] = assay: reference broth microdilution (rBMD); assay type: cell-based; settings: Klebsiella pneumoniae, LSI4552
Method: as §5

K. pneumoniae LSI CT1045 [14] = assay: reference broth microdilution (rBMD); assay type: cell-based; settings: Klebsiella pneumoniae, LSICT1045
Method: as §5

[15] = susceptible, intermediate, resistant category

## CO/N=C(\C(=O)N[C@@H]1C(=O)N2C(C(=O)O)=C(COC(N)=O)CS[C@H]12)c1ccco1 [Cefuroxime, cefuroxime]
E. coli ATCC 25922 [1]; ATCC25922, Table 6, optimized BLAST, cutoff 0.8, read-out: MIC BLAST
  MIC: 4 µg/mL (≈ 9.43 µM)
E. coli ATCC 25922 [1]
  S, I, R: Susceptible
S. aureus ATCC 29213 [2]; S. aureus ATCC 29213
  S, I, R: Susceptible
S. aureus ATCC 29213 [2]; ATCC29213, Table 6, S. aureus ATCC 29213, optimized BLAST, cutoff 0.8, read-out: MIC BLAST
  MIC: 0.25 µg/mL (≈ 0.589 µM)
S. aureus ATCC 29213 [3]
  MIC CLSI QC Range: 0.5 to 2 µg/mL

## CC1=C(C(=O)O)N2C(=O)[C@@H](NC(=O)[C@H](N)c3ccccc3)[C@H]2SC1 [Cephalexin, cephalexin]
E. coli ATCC 25922 [1]; ATCC25922, read-out: MIC BLAST, Table 6, optimized BLAST, cutoff 0.8
  MIC: 16 µg/mL (≈ 46.1 µM)
E. coli ATCC 25922 [1]
  S, I, R: Susceptible
S. aureus ATCC 29213 [2]; S. aureus ATCC 29213
  S, I, R: Susceptible
S. aureus ATCC 29213 [2]; ATCC29213, read-out: MIC BLAST, Table 6, S. aureus ATCC 29213, optimized BLAST, cutoff 0.8
  MIC: 1 µg/mL (≈ 2.88 µM)
S. aureus ATCC 29213 [3]
  MIC CLSI QC Range: 0.25 to 1 µg/mL
E. coli ATCC 25922 [4]
  MIC CLSI QC Range: 1.0 to 4.0 µg/mL

## C[C@H]1c2cccc(O)c2C(=O)C2=C(O)[C@]3(O)C(=O)C(C(N)=O)=C(O)[C@@H](N(C)C)[C@@H]3[C@@H](O)[C@@H]21 [Doxycycline, doxycycline]
P. mirabilis LSI 4698 [5]; Proteus mirabilis, LSI4698, Table 7
  MIC: 4.4 µg/mL (≈ 9.9 µM)
P. mirabilis LSI 4698 [5]; [15]
  S, I, R: Susceptible
E. coli ATCC 25922 [1]; ATCC25922, Table 7, read-out: MIC BLAST
  MIC: 0.14 µg/mL (≈ 0.315 µM)
E. coli ATCC 25922 [1]; ATCC25922, Table 8, isolates, 5 × 10^5 CFU/mL, read-out: MIC BLAST Isolates
  MIC: 0.14 µg/mL (≈ 0.315 µM)
E. coli ATCC 25922 [1]; ATCC25922, Table 8, spiked urine sample, 5 × 10^5 CFU/mL, read-out: MIC BLAST Spiked Urine
  MIC: 0.28 µg/mL (≈ 0.63 µM)
E. coli ATCC 25922 [1]
  S, I, R: Susceptible
P. mirabilis LSI 4933 [6]; Proteus mirabilis, LSI4933, Table 7
  MIC: 1.1 µg/mL (≈ 2.48 µM)
P. mirabilis LSI 4933 [6]; [15]
  S, I, R: Susceptible
K. pneumoniae LSI 4552 [7]; Klebsiella pneumoniae, LSI4552, Table 7
  MIC: 1 µg/mL (≈ 2.25 µM)
K. pneumoniae LSI 4552 [7]; [15]
  S, I, R: Susceptible
S. aureus ATCC 29213 [2]; S. aureus ATCC 29213
  S, I, R: Susceptible
S. aureus ATCC 29213 [2]; ATCC29213, S. aureus ATCC 29213, 5×10^6 CFUs/mL, cutoff 0.8, FIGS. 19-21, read-out: BLAST MIC
  MIC: < 0.0625 µg/mL
S. aureus ATCC 29213 [2]; ATCC29213, Table 7, S. aureus ATCC 29213, read-out: MIC BLAST
  MIC: 0.02 µg/mL (≈ 0.045 µM)
S. aureus ATCC 29213 [2]; ATCC29213, Table 8, S. aureus ATCC 29213, isolates, 5 × 10^5 CFU/mL, read-out: MIC BLAST Isolates
  MIC: 0.02 µg/mL (≈ 0.045 µM)
S. aureus ATCC 29213 [2]; ATCC29213, Table 8, S. aureus ATCC 29213, spiked urine sample, 5 × 10^5 CFU/mL, read-out: MIC BLAST Spiked Urine
  MIC: 0.02 µg/mL (≈ 0.045 µM)
K. pneumoniae LSI CT1045 [8]
  S, I, R: Resistant
E. coli LSI 770 [9]; [15]
  S, I, R: Resistant
E. coli LSI 770 [9]; Table 7, read-out: MIC BLAST
  MIC: 71 µg/mL (≈ 160 µM)
E. coli LSI 770 [9]; Table 8, isolates, 5 × 10^5 CFU/mL, read-out: MIC BLAST Isolates
  MIC: 71 µg/mL (≈ 160 µM)
E. coli LSI 770 [9]; Table 8, spiked urine sample, 5 × 10^5 CFU/mL, read-out: MIC BLAST Spiked Urine
  MIC: 71 µg/mL (≈ 160 µM)
E. coli LSI 770 [10]; Escherichia coli, LSI770
  MIC: 64 µg/mL (≈ 144 µM)
E. coli LSI 770 [10]; Table 8, E. coli LSI 770, geometric mean MIC rounded to nearest 2-fold dilution, n = 3
  MIC rBMD: 64 µg/mL (≈ 144 µM)
P. mirabilis LSI 4698 [11]
  MIC: 32 µg/mL (≈ 72 µM)
E. coli ATCC 25922 [4]; listed as doxycycline
  MIC CLSI QC Range: 0.5 to 2 µg/mL
E. coli ATCC 25922 [4]
  MIC CLSI QC Range: 0.5 to 2.0 µg/mL
P. mirabilis LSI 4933 [12]
  MIC: 4 µg/mL (≈ 9 µM)
K. pneumoniae LSI 4552 [13]
  MIC: 2 µg/mL (≈ 4.5 µM)
K. pneumoniae LSI CT1045 [14]
  MIC: 8 µg/mL (≈ 18 µM)

## C[C@@H](O)[C@H]1C(=O)N2C(C(=O)O)=C(S[C@@H]3CN[C@H](C(=O)N(C)C)C3)[C@H](C)[C@H]12 [Meropenem, meropenem]
E. coli ATCC 25922 [1]
  S, I, R: Susceptible
S. aureus ATCC 29213 [2]; S. aureus ATCC 29213
  S, I, R: Susceptible
